Assay results as given in ChEMBL document CHEMBL2413056, “Adipogenetic effects of retrofractamide A derivatives in 3T3-L1 cells” (Bioorg Med Chem Lett, 2013).
Calls of active or inactive are those of the source. The calls are words filed in the database; no cut-off is given here.

Tests used:
3T3-L1 [1] = experiment: Increase of 2-deoxyglucose uptake in mouse 3T3L1 cells using 2-deoxy-D-(2,6-3H)-glucose at 1 uM after 2 hrs by liquid scintillation counting; assay type: functional, cell-based
[2] = Cytotoxicity against mouse 3T3L1 cells assessed as cell viability at 0.3 uM by CCK8 assay relative to control; assay type: cell-based; conditions: 3T3-L1 cells, read-out: Activity
[3] = Cytotoxicity against mouse 3T3L1 cells assessed as cell viability at 1 uM by CCK8 assay relative to control; assay type: cell-based; conditions: 3T3-L1 cells, read-out: Activity
[4] = Cytotoxicity against mouse 3T3L1 cells assessed as cell viability at 3 uM by CCK8 assay relative to control; assay type: cell-based; conditions: 3T3-L1 cells, read-out: Activity
[5] = Cytotoxicity against mouse 3T3L1 cells assessed as cell viability at 30 uM by CCK8 assay relative to control; assay type: cell-based; conditions: 3T3-L1 cells, read-out: Activity
[6] = Cytotoxicity against mouse 3T3L1 cells assessed as cell viability at 10 uM by CCK8 assay relative to control; assay type: cell-based; conditions: 3T3-L1 cells, read-out: Activity
3T3-L1 [7] = experiment: Adipogenetic activity in mouse 3T3L1 cells assessed as increase in triglyceride level at 30 uM relative to control; assay type: functional
3T3-L1 [8] = experiment: Adipogenetic activity in mouse 3T3L1 cells assessed as increase in triglyceride level at 10 uM relative to control; assay type: functional
3T3-L1 [9] = experiment: Increase of C/EBPbeta mRNA expression in mouse 3T3L1 cells at 3 uM by RT-PCR analysis relative to beta-actin mRNA level; assay type: functional
3T3-L1 [10] = experiment: Increase of C/EBPbeta mRNA expression in mouse 3T3L1 cells at 10 uM by RT-PCR analysis relative to beta-actin mRNA level; assay type: functional
3T3-L1 [11] = experiment: Increase of adiponectin mRNA expression in mouse 3T3L1 cells at 10 uM by RT-PCR analysis relative to beta-actin mRNA level; assay type: functional
3T3-L1 [12] = experiment: Increase of C/EBPdelta mRNA expression in mouse 3T3L1 cells at 10 uM by RT-PCR analysis relative to beta-actin mRNA level; assay type: functional
3T3-L1 [13] = experiment: Increase of aP2 mRNA expression in mouse 3T3L1 cells at 3 uM by RT-PCR analysis relative to beta-actin mRNA level; assay type: functional
3T3-L1 [14] = experiment: Increase of adiponectin mRNA expression in mouse 3T3L1 cells at 3 uM by RT-PCR analysis relative to beta-actin mRNA level; assay type: functional
3T3-L1 [15] = experiment: Increase of C/EBPdelta mRNA expression in mouse 3T3L1 cells at 3 uM by RT-PCR analysis relative to beta-actin mRNA level; assay type: functional
3T3-L1 [16] = experiment: Increase of 2-deoxyglucose uptake in mouse 3T3L1 cells using 2-deoxy-D-(2,6-3H)-glucose after 2 hrs by liquid scintillation counting; assay type: functional, cell-based
3T3-L1 [17] = experiment: Increase of C/EBPbeta mRNA expression in mouse 3T3L1 cells at 30 uM by RT-PCR analysis relative to beta-actin mRNA level; assay type: functional
3T3-L1 [18] = experiment: Increase of C/EBPalpha mRNA expression in mouse 3T3L1 cells at 30 uM by RT-PCR analysis relative to beta-actin mRNA level; assay type: functional
3T3-L1 [19] = experiment: Increase of aP2 mRNA expression in mouse 3T3L1 cells at 10 uM by RT-PCR analysis relative to beta-actin mRNA level; assay type: functional
3T3-L1 [20] = experiment: Increase of PPARgamma2 mRNA expression in mouse 3T3L1 cells at 10 uM by RT-PCR analysis relative to beta-actin mRNA level; assay type: functional
3T3-L1 [21] = experiment: Increase of PPARgamma2 mRNA expression in mouse 3T3L1 cells at 3 uM by RT-PCR analysis relative to beta-actin mRNA level; assay type: functional
3T3-L1 [22] = experiment: Increase of PPARgamma2 mRNA expression in mouse 3T3L1 cells at 30 uM by RT-PCR analysis relative to beta-actin mRNA level; assay type: functional
3T3-L1 [23] = experiment: Increase of C/EBPdelta mRNA expression in mouse 3T3L1 cells at 30 uM by RT-PCR analysis relative to beta-actin mRNA level; assay type: functional
3T3-L1 [24] = experiment: Increase of C/EBPalpha mRNA expression in mouse 3T3L1 cells at 10 uM by RT-PCR analysis relative to beta-actin mRNA level; assay type: functional
3T3-L1 [25] = experiment: Increase of GLUT4 mRNA expression in mouse 3T3L1 cells at 3 uM by RT-PCR analysis relative to beta-actin mRNA level; assay type: functional
3T3-L1 [26] = experiment: Increase of aP2 mRNA expression in mouse 3T3L1 cells at 30 uM by RT-PCR analysis relative to beta-actin mRNA level; assay type: functional
3T3-L1 [27] = experiment: Increase of C/EBPalpha mRNA expression in mouse 3T3L1 cells at 3 uM by RT-PCR analysis relative to beta-actin mRNA level; assay type: functional
3T3-L1 [28] = experiment: Increase of GLUT4 mRNA expression in mouse 3T3L1 cells at 30 uM by RT-PCR analysis relative to beta-actin mRNA level; assay type: functional
3T3-L1 [29] = experiment: Increase of adiponectin mRNA expression in mouse 3T3L1 cells at 30 uM by RT-PCR analysis relative to beta-actin mRNA level; assay type: functional
3T3-L1 [30] = experiment: Increase of GLUT4 mRNA expression in mouse 3T3L1 cells at 10 uM by RT-PCR analysis relative to beta-actin mRNA level; assay type: functional
[31] = target: T1, Peroxisome proliferator-activated receptor gamma (Homo sapiens) (UniProt P37231); experiment: Agonist activity at PPARgamma (unknown origin) at 0.01 to 100 uM by nuclear receptor cofactor assay
T1 sequence (whole entry): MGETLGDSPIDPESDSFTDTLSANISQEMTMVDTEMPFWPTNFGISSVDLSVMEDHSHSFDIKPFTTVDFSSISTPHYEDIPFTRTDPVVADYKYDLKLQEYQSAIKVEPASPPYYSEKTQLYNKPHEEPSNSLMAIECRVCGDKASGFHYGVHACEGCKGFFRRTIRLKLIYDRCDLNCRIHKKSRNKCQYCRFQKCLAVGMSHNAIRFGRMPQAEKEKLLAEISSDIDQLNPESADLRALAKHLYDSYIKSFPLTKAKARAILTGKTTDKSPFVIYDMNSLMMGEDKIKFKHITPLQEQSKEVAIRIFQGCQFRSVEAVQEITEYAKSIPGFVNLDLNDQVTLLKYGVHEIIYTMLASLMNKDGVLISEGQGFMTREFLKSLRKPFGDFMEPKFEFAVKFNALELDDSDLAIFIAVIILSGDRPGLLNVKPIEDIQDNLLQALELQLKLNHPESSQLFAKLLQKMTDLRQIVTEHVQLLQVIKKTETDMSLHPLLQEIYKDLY

Q: For Cc1c(C)c2c(c(C)c1O)CCC(C)(COc1ccc(CC3SC(=O)NC3=O)cc1)O2 (stereo not drawn), which Activity (3T3-L1 [1]) is on record?
A: Active

Q: For CC(C)CNC(=O)/C=C/C=C/CC/C=C/c1ccc2c(c1)OCO2 [RETROFRACTAMIDE A], which viability at 0.3 µM [2] is on record?
A: 100%

Q: And the viability at 1 µM [3]?
A: 98.1%

Q: And the viability at 3 µM [4]?
A: 109%

Q: What about the viability at 30 µM [5] of the same compound?
A: 109%

Q: What about the viability at 10 µM [6] of the same compound?
A: 108%

Q: And the Activity (3T3-L1 [7])?
A: 22.9%

Q: What about the Activity (3T3-L1 [8]) of the same compound?
A: 38%

Q: Which Activity (3T3-L1 [8]) does the source give for OC/C=C/C=C/CC/C=C/c1ccc2c(c1)OCO2 here?
A: 0.6%

Q: For CCCCCNC(=O)/C=C/C=C/CC/C=C/c1ccc2c(c1)OCO2, which viability at 0.3 µM [2] is on record?
A: 98.7%

Q: What about the Ratio (3T3-L1 [9]) of the same compound?
A: 0.98

Q: And the Ratio (3T3-L1 [10])?
A: 1.6

Q: And the Ratio (3T3-L1 [11])?
A: 1.3

Q: What about the viability at 1 µM [3] of the same compound?
A: 102%

Q: What about the viability at 3 µM [4] of the same compound?
A: 105%

Q: And the Ratio (3T3-L1 [12])?
A: 1.5

Q: And the Ratio (3T3-L1 [13])?
A: 0.86

Q: What about the Ratio (3T3-L1 [14]) of the same compound?
A: 1.04

Q: What about the Ratio (3T3-L1 [15]) of the same compound?
A: 0.79

Q: And the viability at 30 µM [5]?
A: 107%

Q: And the Activity (3T3-L1 [16])?
A: Dose-dependent effect

Q: And the Ratio (3T3-L1 [17])?
A: 2.91

Q: What about the Ratio (3T3-L1 [18]) of the same compound?
A: 4.91

Q: What about the Ratio (3T3-L1 [19]) of the same compound?
A: 3.18

Q: And the Ratio (3T3-L1 [20])?
A: 1.76

Q: What about the Ratio (3T3-L1 [21]) of the same compound?
A: 0.88

Q: And the viability at 10 µM [6]?
A: 99%

Q: And the Activity (3T3-L1 [7])?
A: 58.8%

Q: And the Ratio (3T3-L1 [22])?
A: 2.57

Q: And the Ratio (3T3-L1 [23])?
A: 2.64

Q: What about the Ratio (3T3-L1 [24]) of the same compound?
A: 1.27

Q: And the Ratio (3T3-L1 [25])?
A: 1.55

Q: And the Ratio (3T3-L1 [26])?
A: 3.09

Q: And the Ratio (3T3-L1 [27])?
A: 0.81

Q: And the Ratio (3T3-L1 [28])?
A: 4.22

Q: What about the Activity (3T3-L1 [8]) of the same compound?
A: 55.4%

Q: What about the Ratio (3T3-L1 [29]) of the same compound?
A: 2.16

Q: What about the Ratio (3T3-L1 [30]) of the same compound?
A: 3.89

Q: And the Activity [31]?
A: Active

Q: With CCCNC(=O)/C=C/C=C/CC/C=C/c1ccc2c(c1)OCO2 as the compound, how does the viability at 0.3 µM [2] read?
A: 101%

Q: And the viability at 1 µM [3]?
A: 104%

Q: And the viability at 3 µM [4]?
A: 102%

Q: What about the viability at 30 µM [5] of the same compound?
A: 68.4%

Q: What about the viability at 10 µM [6] of the same compound?
A: 87.5%

Q: What about the Activity (3T3-L1 [7]) of the same compound?
A: 18.7%

Q: What about the Activity (3T3-L1 [8]) of the same compound?
A: 42.7%

Q: With CC(C)COC(=O)/C=C/C=C/CC/C=C/c1ccc2c(c1)OCO2 as the compound, how does the viability at 30 µM [5] read?
A: 21.7%

Q: What about the Activity (3T3-L1 [7]) of the same compound?
A: 21.7%

Q: What about the Activity (3T3-L1 [8]) of the same compound?
A: 20%

Q: For COC(=O)/C=C/C=C/CC/C=C/c1ccc2c(c1)OCO2, which Activity (3T3-L1 [7]) is on record?
A: 4%

Q: And the Activity (3T3-L1 [8])?
A: 4.6%

Q: For CCCCNC(=O)/C=C/C=C/CC/C=C/c1ccc2c(c1)OCO2, which viability at 0.3 µM [2] is on record?
A: 96.2%

Q: And the viability at 1 µM [3]?
A: 94.8%

Q: And the viability at 3 µM [4]?
A: 87.1%

Q: What about the viability at 30 µM [5] of the same compound?
A: 78.7%

Q: What about the viability at 10 µM [6] of the same compound?
A: 69.3%

Q: And the Activity (3T3-L1 [7])?
A: 46.2%

Q: And the Activity (3T3-L1 [8])?
A: 55.9%

Q: With CC(C)CNC(=O)CCCCCCCCc1ccc2c(c1)OCO2 as the compound, how does the viability at 0.3 µM [2] read?
A: 99.3%

Q: What about the viability at 1 µM [3] of the same compound?
A: 105%

Q: What about the viability at 3 µM [4] of the same compound?
A: 104%

Q: What about the viability at 30 µM [5] of the same compound?
A: 109%

Q: What about the viability at 10 µM [6] of the same compound?
A: 111%

Q: What about the Activity (3T3-L1 [7]) of the same compound?
A: 31.9%

Q: What about the Activity (3T3-L1 [8]) of the same compound?
A: 13.3%

Q: What does the source list for CC(C)NC(=O)/C=C/C=C/CC/C=C/c1ccc2c(c1)OCO2?
A: viability at 0.3 µM [2]: 95%; viability at 1 µM [3]: 94.8%; viability at 3 µM [4]: 96.6%; viability at 30 µM [5]: 102%; viability at 10 µM [6]: 96.1%; Activity (3T3-L1 [7]): 43.1%; Activity (3T3-L1 [8]): 39.4%

Q: With O=C(/C=C/C=C/CC/C=C/c1ccc2c(c1)OCO2)N1CCCCC1 [DEHYDROPIPERNOLINE] as the compound, how does the Activity (3T3-L1 [8]) read?
A: 21.6%
